Legend:
Corn = Corn growth, bacteria with plant-growth-promoting chemicals; format: in vivo; conditions: 2 weeks
Method: (§1) The selected strains were grown in minimal media (KH2PO4 3 g, Na2HPO4 6 g, NH4Cl 1 g, NaCl 0.50 g, MgSO4 7H2O 0.15 g, CaCl2 2H2O 0.013 g, and glucose 1 g, per L dry weight).

Soybeans = assay: Soybean growth, bacteria with plant-growth-promoting chemicals; format: in vivo; conditions: 2 weeks
Method: as §1

| SMILES | Comparison to Uninoculated (Corn; corn height) [%] | Avg. Height (cm) (Corn; corn, with or without 2,3-butanediol or yeast extract) | Comparison to Uninoculated (Soybeans; soybean height) [%] | Avg. Height (cm) (Soybeans; soybeans, with or without glycerol, 2,3-butanediol or yeast extract) |
| --- | --- | --- | --- | --- |
| CC(O)C(C)O (stereo not shown) [Uninoculated and 2,3-butanediol, 2,3-butanediol] | 105.8 | 16.03 | – | – |
| OCC(O)CO [Uninoculated and Glycerol, glycerol] | – | – | 109.8 | 12.34 |

— patent publication US10555532B2, “Plant growth-promoting bacteria and methods of use” (priority 2013, dated 2020)
